Assays:
Format in all cases: in vivo
[1] = test system: Arabidopsis thaliana seed; assay: Seed germination assay for testing Examples 29-46; parameters: key: ++++: The 3′-substituted-derivatives were scored by potency relative to ABA.; (S)-ABA potency = +++.; ++: The 3′-substituted-derivatives were scored by potency relative to ABA.; +: The 3′-substituted-derivatives were scored by potency relative to ABA.; −− = no effect; conditions: 0.16-40 μM in 6-well plates, 4 days after vernalization, compared with (S)-ABA
Experimental: (§1) Seed Germination Assay for Testing Examples 29-46 To determine the germination inhibition potency of the (±)-ABA derivatives, germination assays were performed with the model plant Arabidopsis thaliana. Arabidopsis seed was sterilized by soaking in 70% ethanol solution for 5 minutes, followed by 5% sodium hypochlorite solution for 10 minutes. The seeds were then washed three times with sterile water. The test compounds were tested in germination assay at five concentrations (0.16, 0.64, 2.5, 10, and 40 μM) with (S)-ABA (0.16, 0.64 and 2.5 μM) as a control in 6-well plates. DMSO stock solutions of (S)-ABA and the derivatives at 1,000 fold of the test concentrations were prepared. The stock solutions (5 μL) of (S)-ABA and the derivatives were added to the wells in the assay plate with 0.8% agar solutions of ½ Murashige and Skoog media. Sixteen sterile seeds were placed on the solid agar medium at an appropriate spacing. The assay plates were sealed with surgical tape and wrapped in aluminum foil, and the seeds were vernalized at 4° C. for 2 days. The assay plates were incubated in a growth chamber at 22.5° C. under daily light cycles of 16 hours (30 μmol/m^2·sec) for 4 days after the vernalization. The germination inhibition potency of the derivatives was scored and compared with that of (S)-ABA. The results are summarized in Table 2 “Table 2: Arabidopsis seed germination inhibition activity of (±)-ABA derivatives.”

[2] = test system: Arabidopsis thaliana seed; assay: Seed germination assay for testing Examples 29-46
Experimental: as §1

[3] = test system: Arabidopsis thaliana seed; assay: Seed germination inhibition assay for testing Examples 1-28 and 47-50; parameters: key to Arabidopsis seed germination inhibition potency: + + + +: The other derivatives were scored by potency relative to S-ABA.; (S)-ABA potency = + + +.; + +: The other derivatives were scored by potency relative to S-ABA.; ++: The other derivatives were scored by potency relative to S-ABA.; +: The other derivatives were scored by potency relative to S-ABA.; −− = no effect; conditions: for Arabidopsis seed germination inhibition potency: 0.01-10.0 ppm in 96-well plates, scored on day 7, relative to (S)-ABA
Experimental: Seed Germination Inhibition Assay for Testing Examples 1-28 and 47-50 To determine the germination inhibition potency of the (S)-ABA derivatives, germination assays were performed with the model plant Arabidopsis thaliana. Arabidopsis seed was sterilized by shaking for five minutes in 200-proof ethanol, and followed by shaking for five minutes in a 10% bleach solution. The seeds were then washed five times in sterile, distilled, de-ionized water and suspended in 0.1% phytoagar. The tubes containing the seeds were wrapped in aluminum foil and stratified at 4° C. for two days. All compounds were tested at eight concentrations of 0 (DMSO control), 0.01, 0.03, 0.1, 0.3, 1.0, 3.0, and 10.0 ppm in 96-well plates. Each plate contained eight replicates of each concentration of the test compound and eight replicates of (S)-ABA at 0.1 ppm as the positive control. As an additional set of controls, each run of the assay also contained one plate dosed with (S)-ABA covering a range of concentrations up to 10 ppm. For each compound, 10× stock solutions corresponding to each of the tested concentrations were prepared in distilled and de-ionized water containing 5% DMSO. The stock test solution (10 μL) was added to each well according to the scheme described above, and 90 μL of ½× Murashige and Skoog media containing 1.2% Bactoagar was then added to each well (final DMSO concentration was 0.5%). When the media solidified, ten to fifteen sterile stratified Arabidopsis seeds were distributed into each well using a repeat pipettor. The plates were sealed with surgical tape and placed in a growth chamber running diurnal cycles of 12 hours of light at 24° C. and 12 hours of darkness at 19° C. The plates were scanned on days 3 through 7, and scored on day 7. The 3′-substituted-(S)-ABA derivatives were scored on ability to inhibit germination relative to the potency of (S)-ABA. The results are summarized below in “Table 1: Arabidopsis seed germination inhibition activity of (S)-ABA derivatives.”

Compound | Arabidopsis seed germination inhibition potency [1] | germination inhibition activity compared to (S)-ABA (in words) [2] | Arabidopsis seed germination inhibition potency [3] | germination inhibition potency compared to (S)-ABA (in words) ([3]; Arabidopsis seed germination)
CCCC1=C(C)C(O)(/C=C/C(C)=C\C(=O)O)C(C)(C)CC1=O (racemic) [Example 30, (2Z,4E)-5-(1-hydroxy-2,6,6-trimethyl-4-oxo-3-propylcyclohex-2-en-1-yl)-3-methylpenta-2,4-dienoic acid] | +++ | the same level of potency as (S)-ABA |  | 
CC1=C(CC(F)(F)F)C(=O)CC(C)(C)C1(O)/C=C/C(C)=C\C(=O)O (racemic) [Example 44, (2Z,4E)-5-(1-hydroxy-2,6,6-trimethyl-4-oxo-3-(2,2,2-trifluoroethyl)cyclohex-2-en-1-yl)-3-methylpenta-2,4-dienoic acid] | ++ |  |  | 
CC1=C(C(C)C)C(=O)CC(C)(C)C1(O)/C=C/C(C)=C\C(=O)O (racemic) [Example 31, (2Z,4E)-5-(1-hydroxy-3-isopropyl-2,6,6-trimethyl-4-oxocyclohex-2-en-1-yl)-3-methylpenta-2,4-dienoic acid] | + |  |  | 
CC1=C(C(F)F)C(=O)CC(C)(C)C1(O)/C=C/C(C)=C\C(=O)O (racemic) [Example 38, (2Z,4E)-5-(3-(difluoromethyl)-1-hydroxy-2,6,6-trimethyl-4-oxocyclohex-2-en-1-yl)-3-methylpenta-2,4-dienoic acid] | +++ | the same level of potency as (S)-ABA |  | 
CC1=C(C(F)(F)F)C(=O)CC(C)(C)C1(O)/C=C/C(C)=C\C(=O)O (racemic) [Example 45, (2Z,4E)-5-(1-hydroxy-2,6,6-trimethyl-4-oxo-3-(trifluoromethyl)cyclohex-2-en-1-yl)-3-methylpenta-2,4-dienoic acid] | ++++ | more active than (S)-ABA |  | 
CC1=C(C2CCC2)C(=O)CC(C)(C)C1(O)/C=C/C(C)=C\C(=O)O (racemic) [Example 41, (2Z,4E)-5-(3-cyclobutyl-1-hydroxy-2,6,6-trimethyl-4-oxocyclohex-2-en-1-yl)-3-methylpenta-2,4-dienoic acid] | ++ |  |  | 
CC1=C(C2CC2)C(=O)CC(C)(C)C1(O)/C=C/C(C)=C\C(=O)O (racemic) [Example 29, (2Z,4E)-5-(3-cyclopropyl-1-hydroxy-2,6,6-trimethyl-4-oxocyclohex-2-en-1-yl)-3-methylpenta-2,4-dienoic acid] | +++ | the same level of potency as (S)-ABA |  | 
CC1=C(C(C)(F)F)C(=O)CC(C)(C)C1(O)/C=C/C(C)=C\C(=O)O (racemic) [Example 39, (2Z,4E)-5-(3-(1,1-difluoroethyl)-1-hydroxy-2,6,6-trimethyl-4-oxocyclohex-2-en-1-yl)-3-methylpenta-2,4-dienoic acid] | ++++ | more active than (S)-ABA |  | 
CC1=C(C2CC2F)C(=O)CC(C)(C)C1(O)/C=C/C(C)=C\C(=O)O (racemic) [Example 43, (2Z,4E)-5-(3-(2-fluorocyclopropyl)-1-hydroxy-2,6,6-trimethyl-4-oxocyclohex-2-en-1-yl)-3-methylpenta-2,4-dienoic acid] | +++ | the same level of potency as (S)-ABA |  | 
CC1=CC(=O)CC(C)(C)[C@@]1(O)/C=C/C(C)=C/C(=O)O [(S)-ABA, (S)-abscisic acid, reference compound] | +++ |  | + + + | 
CC1=C(CC#N)C(=O)CC(C)(C)[C@@]1(O)/C=C/C(C)=C\C(=O)O [Example 11, (2Z,4E)-5-((S)-3-(cyanomethyl)-1-hydroxy-2,6,6-trimethyl-4-oxocyclohex-2-en-1-yl)-3-methylpenta-2,4-dienoic acid] |  |  | ++ | 
CCCCC1=C(C)C(O)(/C=C/C(C)=C\C(=O)O)C(C)(C)CC1=O (racemic) [Example 33, (2Z,4E)-5-(3-butyl-1-hydroxy-2,6,6-trimethyl-4-oxocyclohex-2-en-1-yl)-3-methylpenta-2,4-dienoic acid] | + |  |  | 
CC1=C(CC(=O)OC(C)(C)C)C(=O)CC(C)(C)[C@@]1(O)/C=C/C(C)=C\C(=O)O [Example 9, (2Z,4E)-5-((S)-3-(2-(tert-butoxy)-2-oxoethyl)-1-hydroxy-2,6,6-trimethyl-4-oxocyclohex-2-en-1-yl)-3-methylpenta-2,4-dienoic acid] |  |  | −− | 
CCC1=C(C)C(O)(/C=C/C(C)=C\C(=O)O)C(C)(C)CC1=O (racemic) [Example 32, (2Z,4E)-5-(3-ethyl-1-hydroxy-2,6,6-trimethyl-4-oxocyclohex-2-en-1-yl)-3-methylpenta-2,4-dienoic acid] | +++ | the same level of potency as (S)-ABA |  | 
C=CCC1=C(C)[C@](O)(/C=C/C(C)=C\C(=O)O)C(C)(C)CC1=O [Example 4, (2Z,4E)-5-((S)-3-allyl-1-hydroxy-2,6,6-trimethyl-4-oxocyclohex-2-en-1-yl)-3-methylpenta-2,4-dienoic acid] |  |  | + + + | just as effective as (S)-ABA
CC1=C(C(C)F)C(=O)CC(C)(C)C1(O)/C=C/C(C)=C\C(=O)O (racemic) [Example 40, (2Z,4E)-5-(3-(1-fluoroethyl)-1-hydroxy-2,6,6-trimethyl-4-oxocyclohex-2-en-1-yl)-3-methylpenta-2,4-dienoic acid] | ++++ | more active than (S)-ABA |  | 
CC1=C(Cc2ccccc2)C(=O)CC(C)(C)[C@@]1(O)/C=C/C(C)=C\C(=O)O [Example 13, (2Z,4E)-5-((S)-3-benzyl-1-hydroxy-2,6,6-trimethyl-4-oxocyclohex-2-en-1-yl)-3-methylpenta-2,4-dienoic acid] |  |  | −− | 
CCCCCC1=C(C)[C@](O)(/C=C/C(C)=C\C(=O)O)C(C)(C)CC1=O [Example 8, (2Z,4E)-5-((S)-1-hydroxy-2,6,6-trimethyl-4-oxo-3-pentylcyclohex-2-en-1-yl)-3-methylpenta-2,4-dienoic acid] |  |  | −− | 
CC1=C(Cc2ccc(F)cc2)C(=O)CC(C)(C)[C@@]1(O)/C=C/C(C)=C\C(=O)O [Example 21, (2Z,4E)-5-((S)-3-(4-fluorobenzyl)-1-hydroxy-2,6,6-trimethyl-4-oxocyclohex-2-en-1-yl)-3-methylpenta-2,4-dienoic acid] |  |  | −− | 

— patent US9781930B2, “3′-substituted-abscisic acid derivatives” (Valent BioSciences Corporation, priority 2014, dated 2017)
